“Also recorded” adds a separate entry of the source.

Experiment [1] concerns proteases of maize apoplastic fluid processing UmPit2. Kind of experiment: Effect of protease inhibitors on processing of UmPit2 in maize apoplastic fluid. Type of experiment: biochemical. The conditions noted are these: apoplastic fluid preincubated with inhibitor 10 min; 0, 15, 30 min. On the procedure: Fig. 5 PLCPs cleave UmPit2 in the apoplast. a Input used to perform inhibitory test of Pit2 stability. Heterologous expressed UmPit2 and maize AF at different time points during the experiment. b Addition of E-64 stabilizes Pit2 degradation. Four inhibitors for main classes of proteases: E-64 for cysteine proteases, DCI for serine hydrolases, EDTA for metalloproteases and Pepstatin A for aspartic proteases were preincubated with maize AF for 10 min. Pit2 degradation was analyzed over time (0, 15 and 30 min) using SyproRuby staining. c Inhibition of cysteine proteases stabilizes Pit2 in the apoplast. Maize AF was coincubated with a mix of inhibitors containing DCI [10 µM], EDTA [1 mM] and Pepstatin A [10 µM] (Inh. Mix) with or without E-64 [10 µM]. As a control the noninhibitor sample containing DMSO is shown. d Fractionation of SA-treated apoplastic fluid by anion-exchange chromatography. […] F-24 was preincubated with 10 µM E-64 or DMSO followed by addition of purified UmPit2. Samples were incubated for 0, 15 and 30 min and analyzed by gel electrophoresis using SyproRuby. f UmPit2 is processed at similar rates as an endogenous maize substrate. UmPit2 as well as the endogenous maize PLCP substrate Prozip11 were heterologous expressed in E-coli. 3.2 µM proteins were coincubated with F-24 pretreated with inhibitor mix (Inh. mix) in the presence or absence of E-64. Processing of Prozip11 and UmPit2 has been monitored over time. Samples were analyzed by gel electrophoresis and stained with SyproRuby for visualization. As a control purified proteins as well as F-24 were loaded on gel (right gel). DMSO dimethyl sulfoxide, DCI 3,4-dichloroisocoumarin
(§1) Approximately 41 µg/ml heterologous expressed UmPit2 and UhPit2 proteins (concentration calculated with the previously described semi-quantitative approach based on SyproRuby) were incubated with or without apoplastic fluids (ca. 200 µg/ml) over time. Reaction was stopped by adding 2× SDS-gel loading buffer) and samples were analyzed by gel electrophoresis and SyproRuby staining (Invitrogen, Paisley, UK). Inhibition of apoplastic fluids containing specific inhibitors was performed as described in the main text. E-64 and pepstatin A were diluted in DMSO at a desired concentration. DCI was diluted in dimethyl formamide. All compounds have been purchased by Sigma-Aldrich (Taufkirchen, Germany). Stability experiments using F-24 were performed using ca. 1.4 µg/µl of the fraction and 3.2 µM of heterologous expressed UmPit2 or […].

Experiment [2] has as its system F-24 (PLCP-enriched fraction of maize apoplastic fluid). The experiment can be described thus: Stability/processing in PLCP-enriched fraction F-24 (SDS gel, SyproRuby). Type of experiment: in vitro ADME. The conditions noted are these: F-24 preincubated with 50 µM / 10 µM E-64. How it is done: as §1
Experiment [3] deals with PLCPs of fractionated maize apoplastic fluid. The experiment can be described thus: PLCP activity of anion-exchange fractions, substrate Z-Phe-Arg-AMC. Format: biochemical. On the procedure: Fig. 5 PLCPs cleave UmPit2 in the apoplast. a Input used to perform inhibitory test of Pit2 stability. Heterologous expressed UmPit2 and maize AF at different time points during the experiment. b Addition of E-64 stabilizes Pit2 degradation. Four inhibitors for main classes of proteases: E-64 for cysteine proteases, DCI for serine hydrolases, EDTA for metalloproteases and Pepstatin A for aspartic proteases were preincubated with maize AF for 10 min. Pit2 degradation was analyzed over time (0, 15 and 30 min) using SyproRuby staining. c Inhibition of cysteine proteases stabilizes Pit2 in the apoplast. […] Samples were incubated for 0, 15 and 30 min and analyzed by gel electrophoresis using SyproRuby. f UmPit2 is processed at similar rates as an endogenous maize substrate. […] Processing of Prozip11 and UmPit2 has been monitored over time. Samples were analyzed by gel electrophoresis and stained with SyproRuby for visualization. […]
Activity of PLCPs present in isolated apoplastic fluids was monitored using 10 µM final concentration of the fluorogenic substrate Z-Phe-Arg-7-amido-4-methylcoumarin (Sigma-Aldrich, Taufkirchen, Germany). AMC released (RFU) over time was monitored at 460 nm using a Tecan Infinite M200 PRO plate reader (Tecan Group Ltd., Männedorf, Switzerland). […] The inhibitor control was used to normalize all measurements and obtain a read-out for specific PLCP activity. […]

For experiment [4], the system named is apoplastic PLCPs of barley. Kind of experiment: Apoplastic PLCP activity in SA-treated barley. Type of experiment: in vivo. The conditions noted are these: Supplementary Fig. 9.

Take `O=c1oc(Cl)c(Cl)c2ccccc12` [DCI, 3,4-dichloroisocoumarin]: in experiment [1], the “effect on processing of UmPit2 in maize apoplastic fluid (in words)” value (shortened to “effect on processing of UmPit2”) is listed as “Processing of UmPit2 was observed gradually”.
On to `CC(C)C[C@H](NC(=O)[C@H]1O[C@@H]1C(=O)O)C(=O)NCCCCN=C(N)N` [E-64], for which the “effect of E-64 on processing by F-24 (in words)” value in experiment [2] is “stabilized in the fraction preincubated with E-64; also recorded: stabilization of Prozip1 and UmPit2”. In addition, the “PLCP activity of fractions with inhibitor (in words)” value in experiment [3] is “did not show any activity”. Further, the “effect on processing of UmPit2” value in experiment [1] is “E-64 stabilizes UmPit2”.
As for `O=C(O)CN(CCN(CC(=O)O)CC(=O)O)CC(=O)O` [EDTA], in experiment [1], the “effect on processing of UmPit2” value was “Processing of UmPit2 was observed gradually”.
As to `O=C(O)c1ccccc1O` [SA, salicylic acid], in experiment [4], the “induction of apoplastic PLCPs by SA (in words)” value is given as “not found in barley”.
With pepstatin-A, in experiment [1], the “effect on processing of UmPit2” value is reported as “Processing of UmPit2 was observed gradually”.

Values taken from paper PMC6450895, “A fungal substrate mimicking molecule suppresses plant immunity via an inter-kingdom conserved motif” (Nature Communications, 2019).
